# Measurements reported in US20260365696A1, “INHIBITORS OF PTP1B / NCK1 INTERACTION AND METHODS OF MAKING AND USING SAME” (Radella Pharmaceuticals LLC, priority 2023, published 2026).
# Assays:
# [1] = 28-day pharmacodynamic and liver toxicity study in C57BL/6 mice; type: in vivo, mouse; conditions: 28 days; for body weight: 15 or 30 mg/kg IP daily; for signs of physiological or hepatic toxicity: 15 or 30 mg/kg daily IP
# Excerpt: Animals: C57BL/6 male mice (−3 months) were purchased from Charles River, UK. All animals were housed and tested following European (Directive on the Protection of Animals used for Scientific Purposes, 2010/63/EU) and UK Home Office regulations. Experiments were approved by the University Ethics Board and carried out in accordance with the Animal (Scientific Procedures) Act 1986 and following ARRIVE guidelines.
# Treatments: Mice were randomized in to the five experimental groups: Control (n=9); MD17, 15 mg/kg (n=6); MD17, 30 mg/kg (n=6); MD20, 15 mg/kg (n=6); and MD20, 30 mg/kg (n=6). MD17 and MD20 compounds were administered to mice once daily via intraperitoneal (IP) injection for a period of 28 consecutive days at a dose of either 15 or 30 mg/kg. Peptides were kept in −20 °C and dissolved in sterile phosphate buffered saline (PBS) freshly every day before the injection. Control mice received a daily PBS injection. Three mice died during the study, and the final number of animals in each group was: Control (n=9); MD17, 15 mg/kg (n=5); MD17, 30 mg/kg, (n=6); MD20, 15 mg/kg (n=5); and MD20, 30 mg/kg (n=5). All mice had ad libitum access to food and water and were kept in a 12 h light/dark cycle.
# Bodyweights and body mass composition: body weights were recorded during the study and fat and lean mass composition was analysed using an EchoMRI scanner (EchoMedical Systems, Houston, TX, U.S.A.).
# Fasted glucose: All animals were 5 h-fasted and tail glucose measured using an AlphaTRAK 2 glucose strips and glucometer (Abbot, UK).
# Serum assays: Trunk-derived blood was collected from 5 h-fasted mice in to serum separator microtubes and kept at −80 °C. Serum was used for insulin (#EZRMI-13K, Merck), leptin (#90030, Crystal Chem), free fatty acids (FFA; #mak044, Sigma-Aldrich), alanine and aspartate aminotransferases (ALT and AST; #ab105134 and #ab105135, Abcam) analyses.
# Statistical analyses: Data were expressed as means±SEM and were analysed using one- or two-way ANOVA with Bonferroni post hoc tests, as appropriate. GraphPad Prism (V8, GraphPad Software, Inc., San Diego, California, USA) was used for analyses. P-values <0.05 were considered significant.
# SH3-2 domain of NCK1 = molecular target: T1, SH3-2 domain of NCK1 (Homo sapiens, UniProt P16333); test: Isothermal titration calorimetry (ITC) binding to NCK1 SH3-2 domain
# T1 construct: To amplify the NCK1 SH3-2 domain, the primers; 10xHis tag with TEV site (vector pSF-OXB20-NH2-10HIS) (N, cleaved yes); made in house; host or cells: E. coli C43(DE3)
# Method in brief: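 Peptides (3-7.5 mM) titrated into TEV-cleaved, His-purified human NCK1 SH3-2 domain (0.125-0.3 mM) at 25 °C in 10 mM sodium buffer with sodium chloride, pH 8.0. One 0.2 μL then 19 × 2 μL injections; KD from fits with 0.8-1.2 sites, averaged over three runs.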
substance,measurement,setting,value
"Ac-PRPPKR-NH2 [MD20, Ac-PRPPKR-NH2]",% change in fat mass,"[1]; 30 mg/kg IP daily, vs control",decreased
same,percentage change in body weight pre- versus post-treatment,"[1]; 30 mg/kg IP daily, vs control",significant decrease in % change
same,body weight,[1],No statistically significant differences
same,signs of physiological or hepatic toxicity,[1],did not induce any obvious signs of physiological or hepatic toxicity
same,Kd,"SH3-2 domain of NCK1; Alanine scanning of the MD20 6-mer peptide, ITC, 25 °C, pH 8.0",≤ 300 µM
same,Kd,"SH3-2 domain of NCK1; Peptide truncation analysis, ITC, 25 °C, pH 8.0",≤ 300 µM
same,Kd,"SH3-2 domain of NCK1; ability to bind SH3-2 domain of NCK1, stated in text",< 193 µM
Ac-PPPEHIPPPPRPPKR-NH2 [MD17],body weight,[1],No statistically significant differences
same,signs of physiological or hepatic toxicity,[1],did not induce any obvious signs of physiological or hepatic toxicity
same,Kd,"SH3-2 domain of NCK1; Alanine scanning of the MD17 15-mer peptide, ITC, 25 °C, pH 8.0",≤ 300 µM
